Test results from patent US10993947B2, “Treatment of skin lesions” (PIQUR THERAPEUTICS AG, priority 2016, dated 2021).
Marks after values point to notes of the source that are not given here.

Assays:
[1] = target: T1, N-terminally GST-tagged mTOR (Homo sapiens, UniProt P42345); test: In vitro mTOR binding assay (LanthaScreen TR-FRET); conditions: LanthaScreen kinase binding, Tracer 314; read-out: mTOR IC50 (binding)
T1 construct: truncated version: amino acids 1360-2549; purchased Life Technologies PR8683B
T1 sequence (P42345 1360-2549): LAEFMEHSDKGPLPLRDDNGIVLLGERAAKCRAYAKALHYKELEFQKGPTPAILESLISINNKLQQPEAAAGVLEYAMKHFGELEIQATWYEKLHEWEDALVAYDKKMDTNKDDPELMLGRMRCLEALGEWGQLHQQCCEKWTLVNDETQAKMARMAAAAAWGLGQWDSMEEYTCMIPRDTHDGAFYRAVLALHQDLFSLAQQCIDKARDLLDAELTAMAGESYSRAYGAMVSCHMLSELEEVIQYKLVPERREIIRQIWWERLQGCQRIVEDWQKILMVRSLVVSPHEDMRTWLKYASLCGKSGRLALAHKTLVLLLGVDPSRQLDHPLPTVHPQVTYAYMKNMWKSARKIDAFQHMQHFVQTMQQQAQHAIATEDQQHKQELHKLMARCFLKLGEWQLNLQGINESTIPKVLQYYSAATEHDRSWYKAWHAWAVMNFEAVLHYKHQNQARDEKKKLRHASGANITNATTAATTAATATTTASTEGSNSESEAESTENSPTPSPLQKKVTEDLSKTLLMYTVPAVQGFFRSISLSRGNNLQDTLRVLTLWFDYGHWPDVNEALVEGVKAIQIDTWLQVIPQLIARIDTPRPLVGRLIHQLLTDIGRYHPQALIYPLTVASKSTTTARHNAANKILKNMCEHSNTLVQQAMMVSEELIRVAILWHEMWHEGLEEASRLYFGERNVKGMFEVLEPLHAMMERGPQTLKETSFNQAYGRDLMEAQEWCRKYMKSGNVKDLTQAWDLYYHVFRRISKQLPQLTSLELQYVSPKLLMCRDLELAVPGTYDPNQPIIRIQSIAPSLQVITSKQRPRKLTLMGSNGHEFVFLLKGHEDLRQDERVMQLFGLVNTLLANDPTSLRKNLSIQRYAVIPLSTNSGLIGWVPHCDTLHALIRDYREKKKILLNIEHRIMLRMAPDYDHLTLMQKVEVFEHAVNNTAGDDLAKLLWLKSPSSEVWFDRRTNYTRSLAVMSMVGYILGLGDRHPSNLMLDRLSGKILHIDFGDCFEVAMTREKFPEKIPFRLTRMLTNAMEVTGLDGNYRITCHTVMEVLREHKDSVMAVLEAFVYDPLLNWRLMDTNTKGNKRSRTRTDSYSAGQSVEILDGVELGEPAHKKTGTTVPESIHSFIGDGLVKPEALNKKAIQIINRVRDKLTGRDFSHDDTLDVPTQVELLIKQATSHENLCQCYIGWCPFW

pPKB S473 in A2058 cells = test: In-cell Western blot, pPKB S473; format: cell-based; conditions: Homo sapiens, 1 hour treatment
excised pig skin = conditions: 1 %
[2] = system: pig skin (lower epidermis and dermis); test: Ex vivo pig skin penetration, first study (80% SBECD formulations); format: in vitro ADME
From the text: FIG. 3: PK profiles of nine formulations comprising the inventive compounds and control have been assessed. The control formulation Aldara (5% imiquimod) was applied to detect variations in skin permeability (local variability in the same animal and inter-subject variability). The stratum corneum was removed by tape stripping to avoid contamination during the biopsy extraction. […] One biopsy was taken from each control site. Additionally, 5 blank samples were taken.
Ex vivo and in vivo models to assess the penetration of various drug substances including the inventive compounds in the skin of pigs have been established. This model allows to assess the PK profile of several drug candidates including the inventive compounds in one subject, thereby enhancing comparability and avoiding inter-subject variability.
In the first study (FIG. 3, Table 15) the PK profiles of nine test formulations have been assessed using 80% SBECD either at pH3 or pH 7.

[3] = system: pS6 S235/S236 in A2058 cells; test: In-cell Western blot, pS6 S235/S236; format: cell-based; conditions: Homo sapiens, 1 hour treatment

SMILES	IC50 [1]	IC50 (pPKB S473 in A2058 cells; A2058, 1 h)	IC50 ([3]; A2058, 1 h)	skin concentration / skin PK profile (excised pig skin)	penetration into pig skin ([2]; 1% experimental formulations, 80% SBECD, ex vivo)	intrinsic penetration properties compared with imiquimod (Aldara 5% cream) ([2]; ex vivo pig skin, estimated)	IC50 (pPKB S473 in A2058 cells)	IC50 [3]
Nc1cc(C(F)F)c(-c2nc(N3C4CCC3COC4)nc(N3C4CCC3COC4)n2)cn1 [Compound 3, 5-(4-(3-oxa-8-azabicyclo[3.2.1]octan-8-yl)-6-(3-oxa-8-azabicyclo[3.2.1]octan-8-yl)-1,3,5-triazin-2-yl)-4-(difluoromethyl)pyridin-2-amine]	8 nM	231 nM	105 nM	comparable to Cpd1*	penetrated into pig skin (lower epidermis and dermis) to a significant extent	slightly lower		
C[C@@H]1COC[C@H](C)N1c1nc(-c2cnc(N)cc2C(F)F)nc(N2[C@H](C)COC[C@@H]2C)n1 [Compound 40, 5-[4,6-bis[(3R,5S)-3,5-dimethylmorpholin-4-yl]-1,3,5-triazin-2-yl]-4-(difluoromethyl)pyridin-2-amine]	5 nM						252 nM	160 nM
C[C@@H]1COCCN1c1nc(-c2cnc(N)cc2C(F)F)nc(N2CCOC[C@H]2C)n1 [Compound 41, 5-[4,6-bis[(3R)-3-methylmorpholin-4-yl]-1,3,5-triazin-2-yl]-4-(difluoromethyl)pyridin-2-amine]	22 nM						436 nM	261 nM
C[C@@H]1COCCN1c1nc(-c2cnc(N)cc2C(F)F)nc(N2[C@H](C)COC[C@@H]2C)n1 [Compound 44, 4-(difluoromethyl)-5-[4-[(3R,5S)-3,5-dimethylmorpholin-4-yl]-6-[(3R)-3-methylmorpholin-4-yl]-1,3,5-triazin-2-yl]pyridin-2-amine]	5 nM	197 nM	87 nM					
C[C@@H]1COCCN1c1nc(-c2cnc(N)cc2C(F)F)nc(N2CCOCC2(C)C)n1 [Compound 45, 4-(difluoromethyl)-5-[4-(3,3-dimethylmorpholin-4-yl)-6-[(3R)-3-methylmorpholin-4-yl]-1,3,5-triazin-2-yl]pyridin-2-amine]	7 nM	234 nM	93 nM					
COC[C@@H]1COCCN1c1nc(-c2cnc(N)cc2C(F)F)nc(N2CCOC[C@H]2C)n1 [Compound 46, 4-(difluoromethyl)-5-[4-[(3R)-3-(methoxymethyl)morpholin-4-yl]-6-[(3R)-3-methylmorpholin-4-yl]-1,3,5-triazin-2-yl]pyridin-2-amine]	36 nM	956 nM	426 nM					
C[C@@H]1COCCN1c1nc(-c2cnc(N)cc2C(F)F)nc(N2C3COCC2COC3)n1 [Compound 47, 4-(difluoromethyl)-5-[4-(3,7-dioxa-9-azabicyclo[3.3.1]nonan-9-yl)-6-[(3R)-3-methylmorpholin-4-yl]-1,35-triazin-2-yl]pyridin-2-amine]	29 nM	469 nM	176 nM					
C[C@@H]1COC[C@H](C)N1c1nc(-c2cnc(N)cc2C(F)F)nc(N2CCOCC2(C)C)n1 [Compound 66, 4-(difluoromethyl)-5-[4-(3,3-dimethylmorpholin-4-yl)-6-[(3R,5S)-3,5-dimethylmorpholin-4-yl]-1,3,5-triazin-2-yl]pyridin-2-amine]	4 nM	244 nM	139 nM					
CC1(C)COCCN1c1nc(-c2cnc(N)cc2C(F)F)nc(N2C3COCC2COC3)n1 [Compound 69, 4-(difluoromethyl)-5-[4-(3,3-dimethylmorpholin-4-yl)-6-(3,7-dioxa-9-azabicyclo[3.3.1]nonan-9-yl)-1,3,5-triazin-2-yl]pyridin-2-amine]	21 nM	244 nM	140 nM					
C[C@@H]1COCCN1c1nc(-c2cnc(N)cc2C(F)F)nc(N2[C@H](C)COC[C@H]2C)n1 [Compound 78, 4-(difluoromethyl)-5-[4-[(3R,5R)-3,5-dimethylmorpholin-4-yl]-6-[(3R)-3-methylmorpholin-4-yl]-1,3,5-triazirin-2-yl]pyridin-2-amine]	38 nM	506 nM	392 nM					
C[C@@H]1COCCN1c1nc(-c2cnc(N)cc2C(F)F)nc(N2[C@@H](C)COC[C@@H]2C)n1 [Compound 79, 4-(difluoromethyl)-5-[4-[(3S,5S)-3,5-dimethylmorpholin-4-yl]-6-[(3R)-3-methylmorpholin-4-yl]-1,3,5-triazin-2-yl]pyridin-2-amine]	10 nM	200 nM	136 nM					
Nc1cc(C(F)F)c(-c2nc(N3C4CCCC3COC4)nc(N3C4COCC3COC4)n2)cn1 [Compound 82, 4-(difluoromethyl)-5-[4-(3,7-dioxa-9-azabicyclo[3.3.1]nonan-9-yl)-6-(3-oxa-9-azabicyclo[3.3.1]nonan-9-yl)-1,3,5-triazin-2-yl]pyridin-2-amine]	40 nM	329 nM	169 nM					
C[C@H]1COC[C@H](C)N1c1nc(-c2cnc(N)cc2C(F)F)nc(N2[C@@H](C)COC[C@@H]2C)n1 [Compound 83, 5-[4,6-bis[(3S,5S)-3,5-dimethylmorpholin-4-yl]-1,3,5-triazin-2-yl]-4-(difluoromethyl)pyridin-2-amine]	32 nM						379 nM	294 nM
C[C@@H]1COCCN1c1nc(-c2cnc(N)cc2C(F)F)nc(N2CCOCC23CCC3)n1 [Compound 88, 4-(difluoromethyl)-5-[4-[(3R)-3-methylmorpholin-4-yl]-6-(8-oxa-5-azaspiro[3.5]nonan-5-yl)-1,3,5-triazin-2-yl]pyridin-2-amine]	18 nM	271 nM	192 nM					
Nc1cc(C(F)(F)F)c(-c2nc(N3CCOCC3)cc(N3CCOCC3)n2)cn1 [reference compound]	366 nM						555 nM	665 nM
C[C@H]1COCCN1c1cc(-c2cnc(N)cc2C(F)(F)F)nc(N2CCOC[C@@H]2C)n1 [reference compound]	152 nM	452 nM	553 nM					
Nc1cc(C(F)(F)F)c(-c2cc(N3CCOCC3)nc(N3C4CCC3COC4)n2)cn1 [reference compound]	88 nM	564 nM	562 nM					
Nc1ncc(-c2cc(N3CCOCC3)nc(N3C4CCC3COC4)n2)c(C(F)(F)F)n1 [reference compound]	121 nM	340 nM	740 nM					

Continued, in another order:

IC50 [1]	IC50 (pPKB S473 in A2058 cells; A2058, 1 h)	IC50 ([3]; A2058, 1 h)	SMILES	skin concentration / skin PK profile (excised pig skin)	penetration into pig skin ([2]; 1% experimental formulations, 80% SBECD, ex vivo)	intrinsic penetration properties compared with imiquimod (Aldara 5% cream) ([2]; ex vivo pig skin, estimated)	IC50 (pPKB S473 in A2058 cells)	IC50 [3]
3 nM	54 nM	45 nM	CC1(C)COCCN1c1nc(-c2cnc(N)cc2C(F)F)nc(N2CCOCC2)n1 [Compound 42, 4-(difluoromethyl)-5-[4-(3,3-dimethylmorpholin-4-yl)-6-morpholino-1,3,5-triazin-2-yl]pyridin-2-amine]					
644 nM	194 nM	384 nM	Nc1ncc(-c2cc(N3CCOCC3)nc(N3CCOCC3)n2)c(C(F)(F)F)n1 [reference compound]					
1920 nM	175 nM	370 nM	Nc1ncc(-c2nc(N3CCOCC3)cc(N3CCOCC3)n2)c(C(F)(F)F)n1 [reference compound]					
287 nM	193 nM	617 nM	C[C@H]1COCCN1c1cc(-c2cnc(N)nc2C(F)(F)F)nc(N2CCOC[C@@H]2C)n1 [reference compound]					
376 nM	883 nM	1100 nM	C[C@H]1COCCN1c1cc(-c2cnc(N)cc2C(F)(F)F)nc(N2CCOCC2)n1 [reference compound]					
1250 nM	290 nM	1030 nM	C[C@H]1COCCN1c1cc(-c2cnc(N)nc2C(F)(F)F)nc(N2CCOCC2)n1 [reference compound]					
28 nM	248 nM	228 nM	C[C@H]1COCCN1c1nc(-c2cnc(N)cc2C(F)(F)F)cc(N2CCOCC2)n1 [reference compound]					
186 nM	191 nM	535 nM	C[C@H]1COCCN1c1nc(-c2cnc(N)nc2C(F)(F)F)cc(N2CCOCC2)n1 [reference compound]					
